Measured values: patent US10717733B2, “Haloallylamine indole and azaindole derivative inhibitors of lysyl oxidases and uses thereof” (PHARMAXIS LTD., priority 2016, dated 2020)
Structures can show the parent of a compound that is named as a salt.

Legend:
Format in all cases: biochemical
Recombinant human MAO-B = Recombinant human MAO-B (Homo sapiens (Human), UniProt P27338); experiment: Inhibition of human recombinant MAO-B; details: benzylamine 100 μM
How it was run: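 Recombinant human MAO-B used as enzyme source (0.06 mg/mL, stated concentration). Run as for the human SSAO/VAP-1 assay, except benzylamine substrate at 100 μM.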

Human LOXL2 = Human LOXL2 (Homo sapiens (Human), UniProt Q9Y4K0); experiment: LOXL2 inhibition, peroxidase-coupled Amplex Red amine oxidase assay; details: 30 min preincubation at 37° C., putrescine substrate
Human LOXL2, sequence (Q9Y4K0 26-774): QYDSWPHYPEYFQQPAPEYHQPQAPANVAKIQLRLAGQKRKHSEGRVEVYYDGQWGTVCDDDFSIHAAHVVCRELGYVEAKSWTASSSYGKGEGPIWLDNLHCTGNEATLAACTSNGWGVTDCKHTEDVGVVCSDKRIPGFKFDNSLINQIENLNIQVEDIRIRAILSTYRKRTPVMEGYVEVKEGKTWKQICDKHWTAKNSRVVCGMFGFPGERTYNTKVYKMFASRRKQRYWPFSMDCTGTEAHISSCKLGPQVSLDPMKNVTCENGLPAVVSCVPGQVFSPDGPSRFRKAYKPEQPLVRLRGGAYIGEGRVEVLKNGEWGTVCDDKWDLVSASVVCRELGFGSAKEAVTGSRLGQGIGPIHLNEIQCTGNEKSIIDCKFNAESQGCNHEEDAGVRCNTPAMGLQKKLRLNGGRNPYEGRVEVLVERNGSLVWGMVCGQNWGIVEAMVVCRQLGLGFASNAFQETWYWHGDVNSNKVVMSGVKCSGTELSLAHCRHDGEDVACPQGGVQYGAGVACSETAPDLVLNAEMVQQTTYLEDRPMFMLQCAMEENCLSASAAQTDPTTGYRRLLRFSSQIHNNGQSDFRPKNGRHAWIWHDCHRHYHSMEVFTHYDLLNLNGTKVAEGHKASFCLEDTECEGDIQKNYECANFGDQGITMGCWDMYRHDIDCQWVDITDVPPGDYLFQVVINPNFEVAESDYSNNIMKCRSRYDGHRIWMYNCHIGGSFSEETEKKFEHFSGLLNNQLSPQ
How it was run: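 Enzyme in 1.2 M urea, 50 mM sodium borate pH 8.2 with 1 μM mofegiline and 0.5 mM pargyline, preincubated 30 min at 37° C with compound (11-point CRC). Putrescine at twice KM (10 mM for LOXL2) with Amplex Red/HRP; fluorescence (ex 565, em 590) read kinetically 30 min; IC50 from slopes.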

[1] = molecular target: human recombinant SSAO/VAP-1 (Homo sapiens (Human), UniProt Q16853); experiment: Inhibition of human recombinant SSAO/VAP-1 amine oxidase activity; details: 30 min preincubation at 37° C., 600 μM benzylamine
human recombinant SSAO/VAP-1, sequence (Q16853 34-763): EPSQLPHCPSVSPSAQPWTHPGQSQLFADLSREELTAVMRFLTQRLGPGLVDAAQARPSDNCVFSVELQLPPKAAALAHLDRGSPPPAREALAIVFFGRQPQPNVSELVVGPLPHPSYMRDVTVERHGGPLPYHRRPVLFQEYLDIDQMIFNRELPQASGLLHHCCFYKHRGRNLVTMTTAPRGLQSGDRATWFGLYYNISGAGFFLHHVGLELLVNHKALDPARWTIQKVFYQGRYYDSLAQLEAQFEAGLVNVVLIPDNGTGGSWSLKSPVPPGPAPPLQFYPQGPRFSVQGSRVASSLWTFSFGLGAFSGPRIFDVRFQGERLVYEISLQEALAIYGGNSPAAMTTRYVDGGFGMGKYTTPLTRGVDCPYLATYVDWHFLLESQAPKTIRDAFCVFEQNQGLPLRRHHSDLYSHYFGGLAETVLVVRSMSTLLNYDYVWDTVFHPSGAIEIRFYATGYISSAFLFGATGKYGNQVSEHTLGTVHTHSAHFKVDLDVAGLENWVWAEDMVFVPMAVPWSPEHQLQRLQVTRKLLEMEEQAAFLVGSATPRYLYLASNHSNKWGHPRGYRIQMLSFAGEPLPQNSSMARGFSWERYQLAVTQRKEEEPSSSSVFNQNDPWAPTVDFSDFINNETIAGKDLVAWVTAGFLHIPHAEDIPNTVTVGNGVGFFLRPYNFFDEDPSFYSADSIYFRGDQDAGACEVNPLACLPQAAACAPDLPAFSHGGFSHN
How it was run: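 Purified SSAO/VAP-1 (residues 34-763, expressed in CHO Lec 8 cells; 0.25 μg/mL) preincubated 30 min at 37° C with compound in 0.1 M sodium phosphate pH 7.4. Reaction mix of 600 μM benzylamine, 120 μM Amplex Red and 1.5 U/mL HRP added; fluorescence (ex 565/em 590 nm) read every 2.5 min for 30 min; IC50 from kinetic slopes over 4-11 point curves.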

Recombinant human MAO-B, sequence (P27338 whole entry): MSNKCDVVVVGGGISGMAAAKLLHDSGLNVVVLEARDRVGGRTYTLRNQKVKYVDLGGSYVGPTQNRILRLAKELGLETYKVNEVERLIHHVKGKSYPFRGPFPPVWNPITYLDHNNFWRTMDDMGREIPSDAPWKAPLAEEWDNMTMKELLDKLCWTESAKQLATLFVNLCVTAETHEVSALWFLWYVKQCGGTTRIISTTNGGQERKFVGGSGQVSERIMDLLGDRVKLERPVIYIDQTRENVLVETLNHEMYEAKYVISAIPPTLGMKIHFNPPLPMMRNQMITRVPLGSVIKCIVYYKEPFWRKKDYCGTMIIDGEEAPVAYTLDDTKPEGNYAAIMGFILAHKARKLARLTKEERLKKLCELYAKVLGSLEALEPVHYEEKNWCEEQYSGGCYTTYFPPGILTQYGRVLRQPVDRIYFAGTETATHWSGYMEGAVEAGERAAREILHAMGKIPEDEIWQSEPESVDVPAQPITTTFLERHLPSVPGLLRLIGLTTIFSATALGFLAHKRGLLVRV

SMILES | IC50 (Recombinant human MAO-B) [nM] | IC50 (Human LOXL2) [nM] | IC50 [1] [nM]
CCOC(=O)c1ccc2c(c1)c(-c1cccc(S(=O)(=O)N(C)C)c1)c(C)n2C/C(F)=C/CN [Compound 12, (Z)-ethyl 1-(4-amino-2-fluorobut-2-en-1-yl)-3-(3-(N,N-dimethylsulfamoyl)phenyl)-2-methyl-1H-indole-5-carboxylate] | > 3000 | < 300 | > 3000
Cc1ccc2c(n1)c(-c1cccc(S(C)(=O)=O)c1)c(C)n2C/C(F)=C/CN [Compound 112, (Z)-4-(2,5-dimethyl-3-(3-(methylsulfonyl)phenyl)-1H-pyrrolo[3,2-b]pyridin-1-yl)-3-fluorobut-2-en-1-amine Dihydrochloride] | > 3000 | < 300 | > 3000
Cc1c(-c2cccc(S(=O)(=O)N(C)C)c2)c2ncccc2n1C/C(F)=C/CN [Compound 25, (Z)-3-(1-(4-amino-2-fluorobut-2-en-1-yl)-2-methyl-1H-pyrrolo[3,2-b]pyridin-3-yl)-N,N-dimethylbenzenesulfonamide Dihydrochloride] | > 3000 | < 300 | > 3000
